Each molecule was assayed against T1, human GnRH receptor (Homo sapiens, UniProt P30968) (assay: Peptide competition radioligand binding displacement assay, human GnRH receptor membranes). Conditions: one or more of the peptide competition human receptor binding assays.
T1 construct: expressed in transfected cells; host or cells: RBL cells, stably transfected (in general)
T1 sequence (P30968 1-328): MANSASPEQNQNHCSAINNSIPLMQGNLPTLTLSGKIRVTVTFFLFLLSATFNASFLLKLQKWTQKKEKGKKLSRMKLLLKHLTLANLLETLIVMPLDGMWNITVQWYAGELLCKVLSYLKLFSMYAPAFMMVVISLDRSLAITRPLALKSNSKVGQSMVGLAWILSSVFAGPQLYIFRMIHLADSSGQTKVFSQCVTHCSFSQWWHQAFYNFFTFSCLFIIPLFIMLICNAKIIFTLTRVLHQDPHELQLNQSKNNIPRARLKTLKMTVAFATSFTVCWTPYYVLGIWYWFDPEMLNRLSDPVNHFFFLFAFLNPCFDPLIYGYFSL
Method: cDNA's of human, rhesus macaque, rabbit, dog and rat GnRH receptors are cloned into pcDNA3.1 (+) (Invitrogen). Full length sequences of all receptors are confirmed by DNA sequencing. HEK 293, CHO, COS-7, or rat basophilic leukemia (RBL) cells are stably transfected with human, rat, or macaque GnRH receptors and high expressing single cell clones (Bmax≧0.4 pMol/mg membrane protein) are isolated and maintained in Dulbecco's Modified Eagles Medium (DMEM) with following supplements: 10 mM HEPES; 2 mM L-glutamine; 1 mM Sodium Pyruvate; 50 U/mL penicillin, 50 μg/mL streptomycin; 10% Heat-inactivated Fetal Bovine Serum and 200 μg/mL Geneticin (G-418-Sulfate). Non-essential amino acids (0.1 mM) (Irvine Scientific; Santa Ana, Calif.) are included in the RBL cell media.
In general, initial peptide radioligand binding assays are carried out using membranes from stably transfected RBL cells. RBL stable clones are found to more consistently express high levels of GnRH receptor and are therefore used for subsequent binding studies as well as Ca^++ flux and inositol phosphate accumulation assays. Transiently transfected COS-7 cells are used for preparation of membranes containing GnRH receptors from multiple species (as well as those of mutant receptors for other studies) because of the convenience for rapidly analyzing multiple receptors.
HEK293 cells stably transfected with the human GnRH receptor are grown for two days after achieving confluence then are harvested by striking tissue culture flasks against a firm surface. Cells are collected by centrifugation at 1000 g for 5 minutes. Cell pellets are resuspended in 5% sucrose and homogenized using a polytron homogenizer for two 15 second homogenization steps. Cell homogenates are then centrifuged for 5 minutes at 3000 g to remove nuclei and the supernatant subsequently centrifuged for 30 minutes at 44,000 g to collect the membrane fraction. The membrane pellet is resuspended in GnRH binding buffer (10 mM HEPES, pH 7.5, 150 mM NaCl and 0.1% BSA) and aliquots immediately snap-frozen in liquid nitrogen and stored at −80° C. Protein content of the membrane suspension is determined using the Bio-Rad protein assay kit (Bio-Rad).
RBL cells stably transfected with the human GnRH receptor are grown to 80% confluency prior to harvesting. The cells are incubated at 37° C. for 10 min in 0.5 mM EDTA/PBS (Ca^++, Mg^++ free), and are dislodged from the plate by gentle rapping of the flasks. Cells are collected and pelleted by centrifugation at 1000 g for 5 minutes. Cell pellets are resuspended in buffer (DPBS supplemented with 10 mM MgCl2, 2 mM EGTA, pH=7.4), and cell lysis is performed using a pressure cell and applying N2 at a pressure of 900 psi for 30 min at 4° C. Unbroken cells and larger debris were removed by centrifugation at 1200 g for 10 min at 4° C. The cell membrane supernatant is then centrifuged at 45,000 g and the resulting membrane pellet is resuspended in assay buffer and homogenized on ice using a tissue homogenizer. Protein concentrations are determined using the Coomassie Plus Protein Reagent kit. Membranes are aliquoted and stored at −80° C. until ready for use.
COS-7 cells transiently transfected with GnRH receptors from different species (human, macaque, dog, rabbit, rat) or mutant GnRH receptors are prepared by bulk electroporation. COS-7 cells are obtained from American Type Cell Culture (Manassas, Va.) and are maintained in Dulbeccos's modified Eagle's medium (DMEM) (MediaTech Inc., Herndon, Va.) containing 10% fetal bovine serum, 10 mM HEPES, 2 mM L-glutamine, 1 mM sodium pyruvate, 50 U/mL penicillin, 50 μg/mL streptomycin. COS-7 cells are seeded in 500 cm^2 tissue culture plates and grown to confluency prior to cell transfection. […]
Work on `COc1ccccc1N(C)C(=O)c1ccc(Cl)c(-c2ccc(C#N)nc2)c1` [2-2, 4-chloro-3-(6-cyano-pyridin-3-yl)-N-(2-methoxy-phenyl)-N-methyl-benzamide] yielded a Ki of at most 0.1 µM.
Work on `COc1ccccc1N(C)C(=O)c1ccc(Cl)c(-c2cnc(Cl)cc2Cl)c1` [2-3] yielded a Ki of at most 0.1 µM.
`COc1ccccc1N(C)C(=O)c1ccc(Cl)c(-c2ccc(Cl)nc2Cl)c1` [2-6] showed a Ki of at most 0.1 µM.
For `COc1ccccc1N(C)C(=O)c1ccc(Cl)c(-c2cnc(C)cc2Cl)c1` [2-8], the Ki was at most 0.1 µM.
`COc1ccccc1N(C)C(=O)c1ccc(Cl)c(-c2cnc(C)cc2C)c1` [2-9] gave a Ki of at most 0.1 µM.
`COc1ccccc1N(C)C(=O)c1ccc(Cl)c(-c2cnc(C#N)cc2C)c1` [2-10, 4-chloro-3-(6-cyano-4-methyl-pyridin-3-yl)-N-(2-methoxy-phenyl)-N-methyl-benzamide] showed a Ki of at most 0.1 µM.
`COc1ccccc1N(C)C(=O)c1ccc(Cl)c(-c2ccc(C(F)(F)F)nc2)c1` [2-11] showed a Ki of at most 0.1 µM.
With `COc1ccccc1N(C)C(=O)c1ccc(Cl)c(-c2cnc(C(F)(F)F)cc2C)c1` [2-12] the Ki was at most 0.1 µM.
Molecule `COc1ccccc1N(C)C(=O)c1ccc(Cl)c(-c2cnc(C(F)(F)F)cc2C#N)c1` [2-14] has a Ki of at most 0.1 µM.
`Cc1ccccc1N(C)C(=O)c1ccc(Cl)c(-c2ccc(Cl)nc2)c1` [2-15] showed a Ki of at most 0.1 µM.
With `Cc1cc(Cl)c(-c2cc(C(=O)N(C)c3ccccc3C)ccc2Cl)cn1` [2-16] the Ki was at most 0.1 µM.
For `Cc1cc(Cl)ncc1-c1cc(C(=O)N(C)c2ccccc2C)ccc1Cl` [2-18], the Ki was at most 0.1 µM.
In the case of `Cc1cc(Cl)c(-c2cc(C(=O)N(C)c3c(C)cccc3C)ccc2Cl)cn1` [2-19], the Ki is reported as at most 0.1 µM.
For `Cc1cc(Cl)c(-c2cc(C(=O)N(C)c3cccc(C)c3C)ccc2Cl)c(C)n1` [2-21], the Ki was at most 0.1 µM.
`Cc1cc(Cl)c(-c2cc(C(=O)N(C)c3cccc(C)c3C)ccc2Cl)cn1` [2-22] was tested, and the Ki was at most 0.1 µM.
For `Cc1cc(Cl)c(-c2cc(C(=O)N(C)c3cccc(C(F)(F)F)c3C)ccc2Cl)cn1` [2-24], the Ki was at most 0.1 µM.
For `Cc1cc(Cl)c(-c2cc(C(=O)N(C)c3cccc(C(F)(F)F)c3C)ccc2Cl)c(C)n1` [2-25], the Ki was at most 0.1 µM.
`COc1cc(C)c(-c2cc(C(=O)N(C)c3c(C)cccc3OC)ccc2Cl)cn1` [2-26] showed a Ki of at most 0.1 µM.
Work on `COc1cccc(C)c1N(C)C(=O)c1ccc(Cl)c(-c2cnc(C)cc2Cl)c1` [2-27] yielded a Ki of at most 0.1 µM.
With `COc1cccc(C)c1N(C)C(=O)c1ccc(Cl)c(-c2cnc(Cl)cc2Cl)c1` [2-29] the Ki was at most 0.1 µM.
`COc1cccc(C)c1N(C)C(=O)c1ccc(Cl)c(-c2cnc(Cl)cc2C)c1` [2-31, 4-chloro-3-(6-chloro-4-methyl-pyridin-3-yl)-N-(2-methoxy-6-methyl-phenyl)-N-methyl-benzamide] gave a Ki of at most 0.1 µM.
`COc1cccc(C)c1N(C)C(=O)c1ccc(Cl)c(-c2cnc(C(F)(F)F)cc2C)c1` [2-33] was tested, and the Ki was at most 0.1 µM.
With `COc1cccc(C)c1N(C)C(=O)c1ccc(Cl)c(-c2cnc(C#N)cc2C)c1` [2-34] the Ki was at most 0.1 µM.
For `COc1cccc(C)c1N(C)C(=O)c1ccc(Cl)c(-c2cnc(C(F)(F)F)cc2C#N)c1` [2-35], the Ki was at most 0.1 µM.
For `Cc1cc(Cl)ncc1-c1cc(C(=O)N(C)c2ccccc2F)ccc1Cl` [2-36], the Ki was at most 0.1 µM.
For `Cc1cc(Cl)c(-c2cc(C(=O)N(C)c3ccccc3F)ccc2Cl)cn1` [2-37], the Ki was at most 0.1 µM.
`Cc1cc(Br)ncc1-c1cc(C(=O)N(C)c2ccccc2F)ccc1Cl` [2-39] showed a Ki of at most 0.1 µM.
`COc1c(Cl)cccc1N(C)C(=O)c1ccc(Cl)c(-c2cnc(Cl)cc2C)c1` [2-42] gave a Ki of at most 0.1 µM.
For `COc1cc(C)c(-c2cc(C(=O)N(C)c3cccc(Cl)c3OC)ccc2Cl)cn1` [2-45], the Ki was at most 0.1 µM.
Work on `COc1c(Cl)cccc1N(C)C(=O)c1ccc(Cl)c(-c2cnc(C)cc2Cl)c1` [2-46] yielded a Ki of at most 0.1 µM.
`COc1ccccc1N(C)C(=O)c1ccc(Cl)c(-c2nc3ccccc3cc2C=O)c1` [2-48] was tested, and the Ki was at most 0.1 µM.
For `COc1ccccc1N(C)C(=O)c1ccc(Cl)c(-c2nc3ccccc3cc2C#N)c1` [2-49], the Ki was at most 0.1 µM.
`COc1ccccc1N(C)C(=O)c1ccc(Cl)c(-c2ncnc3scc(C)c23)c1` [2-50] showed a Ki of at most 0.1 µM.
Molecule `COc1ccccc1N(C)C(=O)c1ccc(Cl)c(-c2ccc(C(F)(F)F)cc2C#N)c1` [2-53] has a Ki of at most 0.1 µM.
Molecule `COc1ccccc1N(C)C(=O)c1ccc(Cl)c(-c2ccc(Cl)cc2Cl)c1` [2-54] has a Ki of at most 0.1 µM.
`COc1ccccc1N(C)C(=O)c1ccc(Cl)c(-c2ccc(Cl)cc2C#N)c1` [2-55] showed a Ki of at most 0.1 µM.
`COc1ccccc1N(C)C(=O)c1ccc(Cl)c(-c2ncc(Cl)cc2C)c1` [2-57] gave a Ki of at most 0.1 µM.
Molecule `COc1ccccc1N(C)C(=O)c1ccc(Cl)c(-c2ncc(C)cc2Cl)c1` [2-58] has a Ki of at most 0.1 µM.
Work on `COc1ccccc1N(C)C(=O)c1ccc(Cl)c(-c2ncc(F)cc2F)c1` [2-59] yielded a Ki of at most 0.1 µM.
For `COc1ccccc1N(C)C(=O)c1ccc(Cl)c(-c2ncc(C)cc2C)c1` [2-60], the Ki was at most 0.1 µM.
For `Cc1cc(Cl)cnc1-c1cc(C(=O)N(C)c2ccccc2F)ccc1Cl` [2-62], the Ki was at most 0.1 µM.
In the case of `Cc1cc(Cl)cnc1-c1cc(C(=O)N(C)c2c(C)cccc2C)ccc1Cl` [2-63], the Ki is reported as at most 0.1 µM.
Molecule `Cc1cnc(-c2cc(C(=O)N(C)c3c(C)cccc3C)ccc2Cl)c(Cl)c1` [2-64] has a Ki of at most 0.1 µM.
In the case of `Cc1cccc(C)c1N(C)C(=O)c1ccc(Cl)c(-c2ncc(C(F)(F)F)cc2Cl)c1` [2-65], the Ki is reported as at most 0.1 µM.
`Cc1cnc(-c2cc(C(=O)N(C)c3cccc(C)c3C)ccc2Cl)c(Cl)c1` [2-67] showed a Ki of at most 0.1 µM.
For `Cc1cnc(-c2cc(C(=O)N(C)c3cccc(C)c3C)ccc2Cl)c(C)c1` [2-68], the Ki was at most 0.1 µM.
With `COc1cccc(C)c1N(C)C(=O)c1ccc(Cl)c(-c2ncc(Cl)cc2Cl)c1` [2-69] the Ki was at most 0.1 µM.
`COc1c(Cl)cccc1N(C)C(=O)c1ccc(Cl)c(-c2ncc(C)cc2C)c1` [2-70] gave a Ki of at most 0.1 µM.
`Cc1cc(Cl)cnc1-c1cc(C(=O)N(C)c2cccc(C)c2C)ccc1Cl` [2-71] gave a Ki of at most 0.1 µM.
With `COC(=O)c1ccccc1N(C)C(=O)c1ccc(Cl)c(-c2ncc(Cl)cc2C)c1` [2-72] the Ki was at most 0.1 µM.
With `COC(=O)c1ccccc1N(C)C(=O)c1ccc(Cl)c(-c2ncc(C(F)(F)F)cc2Cl)c1` [2-75] the Ki was at most 0.1 µM.
Work on `CN(C(=O)c1ccc(Cl)c(-c2ncc(C(F)(F)F)cc2Cl)c1)c1ccccc1F` [2-76] yielded a Ki of at most 0.1 µM.
Work on `COC(=O)c1ccccc1N(C)C(=O)c1ccc(Cl)c(-c2ncc(C)cc2Cl)c1` [2-77] yielded a Ki of at most 0.1 µM.
For `COc1ccccc1N(C)C(=O)c1ccc(Cl)c(-c2nc3ccccc3cc2C)c1` [2-79], the Ki was at most 0.1 µM.
`COc1ccccc1N(C)C(=O)c1ccc(Cl)c(-c2nc(C)c(Cl)cc2Cl)c1` [2-80] was tested, and the Ki was at most 0.1 µM.
Molecule `CSc1ccccc1N(C)C(=O)c1ccc(Cl)c(-c2cnc(C(F)(F)F)cc2C#N)c1` [2-81] has a Ki of at most 0.1 µM.
For `COC(=O)COc1ccccc1N(C)C(=O)c1ccc(Cl)c(-c2cnc(Cl)cc2C)c1` [3-1, (2-{[4-chloro-3-(6-chloro-4-methyl-pyridin-3-yl)-benzoyl]-methyl-amino}-phenoxy)-acetic acid methyl ester], the Ki was at most 0.1 µM.
`COC(=O)CCCOc1ccccc1N(C)C(=O)c1ccc(Cl)c(-c2cnc(Cl)cc2C)c1` [3-2] was tested, and the Ki was at most 0.1 µM.
Molecule `COC(=O)COc1ccccc1N(C)C(=O)c1ccc(Cl)c(-c2cnc(C#N)cc2C)c1` [3-3] has a Ki of at most 0.1 µM.
For `COC(=O)COc1ccccc1N(C)C(=O)c1ccc(Cl)c(-c2cnc(C)cc2Cl)c1` [3-4], the Ki was at most 0.1 µM.
Molecule `COC(=O)CCCOc1cccc(C)c1N(C)C(=O)c1ccc(Cl)c(-c2cnc(Cl)cc2C)c1` [3-5] has a Ki of at most 0.1 µM.

Reference: patent publication US8481738B2, “Gonadotropin-releasing hormone receptor antagonists and methods relating thereto” (Neurocrine Biosciences, Inc., priority 2007, dated 2013)
